How the values were obtained:
[1] = biological target: T1, CFTR (Homo sapiens, UniProt P13569, DEL508-508); test: TECC24 AUC fold over DMSO @10 μM, CFTR-mediated transepithelial chloride transport in CF-HBE cells; type: cell-based; conditions: test agent AUC divided by DMSO vehicle AUC, primary CF-HBE cells, ΔF508 homozygous donor, 48 hours incubation
T1 construct: Primary human bronchial epithelial cells from a ΔF508 homozygous CF donor; host or cells: primary human bronchial epithelial cells (CF-HBE), ΔF508 homozygous donor
In short: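 Primary ΔF508-homozygous CF bronchial epithelial cells on inserts were incubated 48 h at 36.5 °C with compound in IL-13-containing medium. VT and TEER were then recorded in current-clamp mode (pH 7.4 HEPES bath) with benzamil 10 μM, forskolin 10 μM, then CFTR inhibitor-172 20 μM. The IEQ AUC between forskolin and inhibitor was divided by vehicle AUC.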

[2] = biological target: T2, NBD1 (Homo sapiens, UniProt P13569); test: Aggregation analysis using differential static light scattering (DSLS), thermal stability of NBD1 (ΔTagg); type: binding; conditions: ΔTagg versus DMSO control, NBD1 0.2 mg/ml
T2 construct: Purified recombinant NBD1 was produced using previously described methods; made in house
In short: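 Differential static light scattering read from 25° C. to 70° C. every 0.5° C., ramp 1° C./min, on recombinant NBD1 (0.2 mg/ml; Tris/NaCl/MgCl2 buffer with 2 mM ATP, 2 mM DTT, pH 7.6, 1% glycerol) plus compound. Reported ΔTagg subtracts averaged DMSO Tagg from inflection-point Tagg; categories A ≤5, B >5-10, C >10-25° C.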

T2 sequence (P13569 423-646 limits assumed): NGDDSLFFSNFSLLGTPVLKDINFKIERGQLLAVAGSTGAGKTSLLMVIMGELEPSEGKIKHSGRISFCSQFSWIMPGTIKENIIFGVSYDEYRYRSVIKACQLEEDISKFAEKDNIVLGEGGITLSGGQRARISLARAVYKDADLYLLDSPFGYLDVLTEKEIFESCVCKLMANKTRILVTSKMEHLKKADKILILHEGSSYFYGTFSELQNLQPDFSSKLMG
T1 sequence (P13569 with tags, fused parts or gaps DEL508-508): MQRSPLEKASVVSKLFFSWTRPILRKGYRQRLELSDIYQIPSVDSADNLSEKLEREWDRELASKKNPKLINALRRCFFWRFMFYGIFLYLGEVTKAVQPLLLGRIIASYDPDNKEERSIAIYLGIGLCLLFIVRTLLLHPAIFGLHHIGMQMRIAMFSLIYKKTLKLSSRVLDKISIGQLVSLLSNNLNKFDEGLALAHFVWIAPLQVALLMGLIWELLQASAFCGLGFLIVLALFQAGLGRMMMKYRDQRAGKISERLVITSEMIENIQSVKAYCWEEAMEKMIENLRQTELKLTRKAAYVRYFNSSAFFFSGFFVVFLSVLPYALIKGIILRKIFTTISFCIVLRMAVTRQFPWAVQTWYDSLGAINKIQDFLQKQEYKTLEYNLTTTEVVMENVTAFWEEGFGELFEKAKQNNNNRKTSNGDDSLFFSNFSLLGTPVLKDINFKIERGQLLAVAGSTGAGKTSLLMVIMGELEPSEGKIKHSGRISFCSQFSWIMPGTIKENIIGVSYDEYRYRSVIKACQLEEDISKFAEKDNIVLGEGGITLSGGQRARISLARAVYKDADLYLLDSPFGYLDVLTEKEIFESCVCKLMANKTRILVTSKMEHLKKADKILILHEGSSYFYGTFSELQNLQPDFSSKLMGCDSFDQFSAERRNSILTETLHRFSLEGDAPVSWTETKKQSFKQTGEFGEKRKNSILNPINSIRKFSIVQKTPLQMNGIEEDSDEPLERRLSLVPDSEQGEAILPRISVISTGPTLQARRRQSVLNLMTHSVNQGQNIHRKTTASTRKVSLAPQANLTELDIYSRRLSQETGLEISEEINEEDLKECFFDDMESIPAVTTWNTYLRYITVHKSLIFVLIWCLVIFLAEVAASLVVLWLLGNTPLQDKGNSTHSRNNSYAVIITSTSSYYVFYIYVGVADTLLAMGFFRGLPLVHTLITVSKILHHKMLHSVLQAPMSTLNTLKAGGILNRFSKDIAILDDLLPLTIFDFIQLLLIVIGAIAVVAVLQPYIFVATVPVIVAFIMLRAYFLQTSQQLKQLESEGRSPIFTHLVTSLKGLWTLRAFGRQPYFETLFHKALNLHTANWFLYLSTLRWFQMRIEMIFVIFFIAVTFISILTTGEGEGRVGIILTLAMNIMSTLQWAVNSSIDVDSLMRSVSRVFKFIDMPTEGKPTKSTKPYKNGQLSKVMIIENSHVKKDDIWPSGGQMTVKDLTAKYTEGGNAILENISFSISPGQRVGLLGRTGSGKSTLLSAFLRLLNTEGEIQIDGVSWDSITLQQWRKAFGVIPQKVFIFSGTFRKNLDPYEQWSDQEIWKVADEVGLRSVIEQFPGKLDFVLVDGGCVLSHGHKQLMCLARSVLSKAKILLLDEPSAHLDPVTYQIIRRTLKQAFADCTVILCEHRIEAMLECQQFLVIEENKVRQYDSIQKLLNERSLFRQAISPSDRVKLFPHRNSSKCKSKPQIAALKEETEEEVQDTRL

| Structure (SMILES) | TECC (AUC, 10 μM) [1] | DSLS 3D (100 μM ΔT) [2] |
| --- | --- | --- |
| Cn1nc2nc1-c1cc(ccc1F)Oc1c(F)cc3[nH]ccc3c1CCS(=O)(=O)CC(C)(C)CCCC2(C)c1cccc(CC2NC(=O)NC2=O)c1 (stereo not drawn) [Compound 175, 5-[[3-(22,28-Difluoro-3,6,10,10-tetramethyl-12,12-dioxo-24-oxa-12λ6-thia-3,4,19,30-tetrazapentacyclo[23.3.1.12,5.015,23.016,20]triaconta-1(29),2(30),4,15,17,20,22,25,27-nonaen-6-yl)phenyl]methyl]imidazolidine-2,4-dione] | A (a TECC value less than 12 is marked “A”) | C (a value greater than 10 °C and less than or equal to 25 °C is marked “C”) |
| C[C@H](O)Cc1cccc([C@@]2(C)CCCC(C)(C)CS(=O)(=O)CCc3c(c(F)cc4[nH]ccc34)[S+]([O-])c3ccc(F)c(c3)-c3nc2nn3C)c1 (single isomer, unassigned) [Compound 237A] | C (a value between 20 and 80 is marked “C”) | A (an ΔTagg value less than or equal to 5 °C is marked “A”) |
| C[C@@H](Cc1cccc(C2(C)CCCC(C)(C)CS(=O)(=O)CCc3c(c(F)cc4[nH]ccc34)[S+]([O-])c3ccc(F)c(c3)-c3nc2nn3C)n1)C(=O)O (single isomer, unassigned) [Compound 179A] | A (a TECC value less than 12 is marked “A”) | B (a value above 5 °C and less than or equal to 10 °C is marked “B”) |
| Cn1nc2nc1-c1cc(ccn1)Sc1c(F)c(F)c3[nH]ccc3c1CCS(=O)(=O)CC(C)(C)CCC[C@]2(C)c1cccc(CCC(=O)O)c1 [Compound 276, 3-[3-[(6R)-21,22-difluoro-3,6,10,10-tetramethyl-12,12-dioxo-12λ6,24-dithia-3,4,19,28,30-pentazapentacyclo[23.3.1.12,5.015,23.016,20]triaconta-1(29),2(30),4,15,17,20,22,25,27-nonaen-6-yl]phenyl]propanoic Acid] | B (a value between 12-20 is marked “B”) | C (a value greater than 10 °C and less than or equal to 25 °C is marked “C”) |
| CC1(C)CCCC(C)(c2cccc(CCC(=O)O)c2)c2c[nH]c(n2)-c2cc(ccc2F)Oc2c(F)cc3[nH]ccc3c2CCS(=O)(=O)C1 (single isomer, unassigned) [Compound 27B, 3-[3-(22,28-difluoro-6,10,10-trimethyl-12,12-dioxo-24-oxa-12lambda6-thia-3,19,30-triazapentacyclo[23.3.1.12,5.015,23.016,20]triaconta-1(29),2,4,15,17,20,22,25,27-nonaen-6-yl)phenyl]propanoic acid] | C (a value between 20 and 80 is marked “C”) | C (a value greater than 10 °C and less than or equal to 25 °C is marked “C”) |
| Cn1nc2nc1-c1cc(ccc1F)Oc1c(F)cc3[nH]ccc3c1CCS(=O)(=O)CC(C)(C)OCCC2(C)c1cccc(CC(=O)O)c1 (single isomer, unassigned) [Compound 5A, 2-[3-(22,28-Difluoro-3,6,10,10-tetramethyl-12,12-dioxo-9,24-dioxa-12λ^6-thia-3,4,19,30-tetrazapentacyclo[23.3.1.12,5.015,23.016,20]triaconta-1(29),2(30),4,15,17,20,22,25,27-nonaen-6-yl)phenyl]acetic Acid] | B (a value between 12-20 is marked “B”) | C (a value greater than 10 °C and less than or equal to 25 °C is marked “C”) |
| CC1(C)C[S+]([O-])Cc2c(c(F)cc3[nH]ccc23)Oc2ccc(F)c(c2)-c2nc(c[nH]2)C(C)(c2cccc(CCC(=O)O)c2)CCCO1 (stereo not drawn) [Compound 47, 3-[3-(22,28-Difluoro-6,11,11-trimethyl-13-oxo-10,24-dioxa-13M-thia-3,19,30-triazapentacyclo[23.3.1.12,5.015,23.016,20]triaconta-1(29),2,4,15,17,20,22,25,27-nonaen-6-yl)phenyl]propanoic Acid] | B (a value between 12-20 is marked “B”) | C (a value greater than 10 °C and less than or equal to 25 °C is marked “C”) |
| CC(CC(=O)O)c1cccc([C@@]2(C)CCCC(C)(C)CS(=O)(=O)CCc3c(c(F)cc4[nH]ccc34)[S+]([O-])c3ccc(F)c(c3)-c3nc2nn3C)c1 (mixture of isomers) [Compound 217A, 3-[3-[(6R)-22,28-difluoro-3,6,10,10-tetramethyl-12,12,24-trioxo-12λ6,24λ4-dithia-3,4,19,30-tetrazapentacyclo[23.3.1.12,5.015,23.016,20]triaconta-1(29),2(30),4,15,17,20,22,25,27-nonaen-6-yl]phenyl]butanoic Acid] | A (a TECC value less than 12 is marked “A”) | B (a value above 5 °C and less than or equal to 10 °C is marked “B”) |
| Cn1nc2nc1-c1cc(ccc1F)Oc1c(F)cc3[nH]ccc3c1CCS(=O)(=O)CCCCOC2c1cccc(CCC(=O)O)c1 (stereo not drawn) [Compound 297, 3-[3-(22,28-Difluoro-3-methyl-12,12-dioxo-7,24-dioxa-12λ6-thia-3,4,19,30-tetrazapentacyclo[23.3.1.12,5.015,23.016,20]triaconta-1(29),2(30),4,15(23),16(20),17,21,25,27-nonaen-6-yl)phenyl]propanoic Acid] | A (a TECC value less than 12 is marked “A”) | B (a value above 5 °C and less than or equal to 10 °C is marked “B”) |
| C[C@@H](Cc1cccc([C@@]2(C)CCCC(C)(C)CS(=O)(=O)CCc3c(c(F)cc4[nH]ccc34)Sc3ccc(F)c(c3)-c3nc2cs3)c1)C(=O)O [Compound 240, (2S)-3-[3-[(6R)-22,28-difluoro-6,10,10-trimethyl-12,12-dioxo-3,12λ6,24-trithia-19,30-diazapentacyclo[23.3.1.12,5.015,23.016,20]triaconta-1(29),2(30),4,15,17,20,22,25,27-nonaen-6-yl]phenyl]-2-methyl-propanoic Acid] | A (a TECC value less than 12 is marked “A”) | B (a value above 5 °C and less than or equal to 10 °C is marked “B”) |
| CC(Cc1cccc(C2(CF)CCCC(C)(C)CS(=O)(=O)CCc3c(c(F)cc4[nH]ccc34)Oc3ccc(F)c(c3)-c3nc2nn3C)c1)C(=O)O (single isomer, unassigned) [Compound 108A, 3-[3-[22,28-difluoro-6-(fluoromethyl)-3,10,10-trimethyl-12,12-dioxo-24-oxa-12λ6-thia-3,4,19,30-tetrazapentacyclo[23.3.1.12,5.015,23.016,20]triaconta-1(29),2(30),4,15,17,20,22,25,27-nonaen-6-yl]phenyl]-2-methyl-propanoic acid] | A (a TECC value less than 12 is marked “A”) | A (an ΔTagg value less than or equal to 5 °C is marked “A”) |
| COCC(Cc1cccc(C2(C)CCCC(C)(C)CS(=O)(=O)CCc3c(c(F)cc4[nH]ccc34)Oc3ccc(F)c(c3)-c3nc2nn3C)c1)C(=O)O (single isomer, unassigned) [Compound 153A, 2-[[3-(22,28-difluoro-3,6,10,10-tetramethyl-12,12-dioxo-24-oxa-12λ6-thia-3,4,19,30-tetrazapentacyclo[23.3.1.12,5.015,23.016,20]triaconta-1(29),2(30),4,15,17,20,22,25,27-nonaen-6-yl)phenyl]methyl]-3-methoxy-propanoic Acid] | C (a value between 20 and 80 is marked “C”) | C (a value greater than 10 °C and less than or equal to 25 °C is marked “C”) |
| Cn1nc2nc1-c1cc(ccc1F)Oc1c(F)cc3[nH]ccc3c1CCS(=O)(=O)CC(C)(C)/C(F)=C/CC2(C)c1cccc(CCC(=O)O)c1 (stereo not drawn) [Compound 107, 3-[3-[(8Z)-9,22,28-Trifluoro-3,6,10,10-tetramethyl-12,12-dioxo-24-oxa-12lambda6-thia-3,4,19,30-tetrazapentacyclo-[23.3.1.12,5.015,23.016,20]triaconta-1(29),2(30),4,8,15,17,20,22,25,27-decaen-6-yl]phenyl]propanoic acid] | A (a TECC value less than 12 is marked “A”) | C (a value greater than 10 °C and less than or equal to 25 °C is marked “C”) |
| C[C@@H](Cc1cccc(C2(C)CCCC(C)(C)CS(=O)(=O)CCc3c(c(F)cc4[nH]ccc34)Oc3ccc(F)c(c3)-c3nc2nn3C)c1)C(=O)OCOC(=O)C(C)(C)C (single isomer, unassigned) [Compound 145] | C (a value between 20 and 80 is marked “C”) | A (an ΔTagg value less than or equal to 5 °C is marked “A”) |
| Cc1c2nnn1Cc1c(c(F)cc3[nH]ccc13)Oc1ccc(F)c(c1)-c1nc(nn1C)C(C)(c1cccc(CCC(=O)O)c1)CCS(=O)(=O)C2 (single isomer, unassigned) [Compound 101A, 3-[3-(23,29-difluoro-3,6,31-trimethyl-9,9-dioxo-25-oxa-9lambda6-thia-3,4,12,13,14,20,32-heptazahexacyclo[24.3.1.12,5.111,14.016,24.017,21]-dotriaconta-1(30),2(32),4,11(31),12,16,18,21,23,26,28-undecaen-6-yl)phenyl]propanoic Acid] | A (a TECC value less than 12 is marked “A”) | A (an ΔTagg value less than or equal to 5 °C is marked “A”) |
